Source: patent US10004775B2, “Inhibition of hypoxia-inducible factor activity with carica papaya extracts” (The Regents of the University of California, priority 2013, dated 2018)

Legend:
Saos-2 cells = assay: MTT assay of cell viability after 24 h treatment in normoxic or hypoxic conditions; format: cell-based, human; conditions: FIG. 1A
Method: The leaves were washed with distilled water and left to air-dry at room temperature or in an oven at 40° C. until a constant weight was obtained. Dried leaves were then blended into a powder form, soaked and extracted in methanol at a 1:3 ratio (w/v) for three days at room temperature. Extracts were filtered by Whatman No. 1 filter paper with the aid of a vacuum pump. The residues were re-extracted twice using the same methanolic method. Filtrates were then concentrated by rotary evaporator at a maximum of 40° C. Concentrated extracts were collected in glass vials with push-in caps and dried in an oven at 40° C. until a constant weight was obtained. All of the crude extracts were stored −80° C. […] These concentrations were determined empirically and selected to cover a range of effects, ranging from no effect to significant cytotoxicity. […] After a further 4 h of incubation in 5% CO2 at 37° C., formazan precipitates that formed were dissolved with 100 μl of DMSO and the reaction was read in a microplate reader (Model 550, BioRad, Hercules, Calif.) at 570 nm absorbance and 630 nm as the reference wavelength.

HIF = HIF reporter assay (hypoxia-driven firefly luciferase reporter); format: cell-based, human; conditions: cisplatin 0.1 mM; hypoxic HRE-luc Saos2 cells
Method: A human osteosarcoma cell line, Saos-2 stably expressing four copies of the erythropoietin hypoxia response elements (HRE-luc Saos2; […] et al., Malaysian Patent Application #: PI 2012003492), was cultured in DMEM medium (PAA, USA) supplemented with 10% (v/v) fetal bovine serum (FBS; PAA, USA) and 1% (v/v) antibiotic-antimycotic (PAA, USA) in a humidified incubator supplied with ambient oxygen and 5% CO2 at 37° C. An hypoxic gaseous environment was created by incubating cells in a ProOx in vitro chamber (BioSpherix), controlled by ProOx model 110 (BioSpherix). The cells were supplied 0.5% O2, 94.5% N2 and 5% CO2 at 37° C. Cells were co-transfected with a hypoxia-driven firefly luciferase reporter plasmid construct containing four copies of the erythropoietin (EPO) hypoxia response elements (HRE) and a pRL-CMV expressing Renilla luciferase as described previously (Kaluz et al., 2008, […] et al., 2009, […] et al. Malaysian Patent Application No. PI 2012003492). Transfected cells were treated with appropriate concentrations of plant extracts and incubated in either normoxic or hypoxic conditions. After 24 h, firefly and Renilla luciferase signal intensities were measured (Kaluz et al., 2008, […] et al, 2009). Percent HIF inhibition was calculated as a ratio of the difference between untreated and plant extract-treated sample to the untreated sample. […]

SMILES | IC50 in hypoxia compared with normoxia, in words (Saos-2 cells) | percent HIF inhibition (HIF)
CN1C(=O)[C@]2(Cc3cn([C@]45C[C@@]67SS[C@@](CO)(C(=O)N6[C@H]4Nc4ccccc45)N(C)C7=O)c4ccccc34)SS[C@@]1(CO)C(=O)N2C [chetomin] | increased in hypoxia | –
N.N.[Cl][Pt][Cl] [cisplatin] | significantly higher than in normoxia | around 60%
